In patent US20070004660A1, “Synergistic Modulation of Flt3 Kinase Using Alkylquinolines and Alkylquinazolines” (priority 2005, published 2007) one finds IC50 data, which are given here for 30 compounds.

The target in the assay is T1, isolated kinase domain of the human FLT3 receptor (a.a. 571-993) (Homo sapiens, UniProt P36888).
T1 construct: human FLT3 receptor (a.a. 571-993)
T1 sequence (P36888 571-993): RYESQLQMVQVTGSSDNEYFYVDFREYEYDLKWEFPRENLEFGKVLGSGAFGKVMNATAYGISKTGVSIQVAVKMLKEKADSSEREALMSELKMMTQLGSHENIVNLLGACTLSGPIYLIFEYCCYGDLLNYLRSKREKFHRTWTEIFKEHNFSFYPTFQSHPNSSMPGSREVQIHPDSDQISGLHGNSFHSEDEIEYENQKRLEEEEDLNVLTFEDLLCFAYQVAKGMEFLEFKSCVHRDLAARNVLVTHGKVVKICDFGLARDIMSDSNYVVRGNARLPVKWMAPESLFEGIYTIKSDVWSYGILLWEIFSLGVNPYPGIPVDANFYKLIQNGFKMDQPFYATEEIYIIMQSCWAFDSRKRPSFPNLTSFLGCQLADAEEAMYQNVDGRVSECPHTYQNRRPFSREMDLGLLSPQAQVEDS
Nature of the assay: FLT3 fluorescence polarization kinase assay. Particulars: 150 uM ATP; uncertainty ±10%. Type of assay: biochemical.

Structures can show the parent of a compound that is named as a salt.

The compound `O=C(Nc1ccc(N2CCCC2)cc1)N1CCC(c2ncnc3cc(N4CCNC4=O)ccc23)CC1` [Compound 178, 4-[7-(2-Oxo-imidazolidin-1-yl)-quinazolin-4-yl]-piperidine-1-carboxylic acid (4-pyrrolidin-1-yl-phenyl)-amide] yielded a half-maximal inhibitory concentration (IC50) of 10 nM. This counts as double-digit nanomolar.
`O=C(Nc1ccc(N2CCCC2)cc1)N1CCC(c2ncnc3cc(N4CCCC4)ccc23)CC1` [Compound 179, 4-(7-Pyrrolidin-1-yl-quinazolin-4-yl)-piperidine-1-carboxylic acid (4-pyrrolidin-1-yl-phenyl)-amide] came in with a 50% inhibitory concentration (IC50) of 17 nM.
As for `O=C(Nc1ccc(N2CCCC2)cc1)N1CCC(c2ncnc3cc(-n4ccnc4)ccc23)CC1` [Compound 180, 4-(7-Imidazol-1-yl-quinazolin-4-yl)-piperidine-1-carboxylic acid (4-pyrrolidin-1-yl-phenyl)-amide], the figure is 6 nM; as for `O=C(Nc1ccc(N2CCCC2)cc1)N1CCC(c2ncnc3cc(N4CCOCC4)ccc23)CC1` [Compound 181, 4-(7-Morpholin-4-yl-quinazolin-4-yl)-piperidine-1-carboxylic acid (4-pyrrolidin-1-yl-phenyl)-amide], 10 nM; as for `O=C(Nc1ccc(N2CCCC2)cc1)N1CCC(c2ncnc3cc(N4CCSCC4)ccc23)CC1` [Compound 182, 4-(7-Thiomorpholin-4-yl-quinazolin-4-yl)-piperidine-1-carboxylic acid (4-pyrrolidin-1-yl-phenyl)-amide], 11 nM.
As for `O=C1CN(c2ccc3c(C4CCN(C(=O)Nc5ccc(N6CCCC6)cc5)CC4)ncnc3c2)CCN1` [Compound 183, 4-[7-(3-Oxo-piperazin-1-yl)-quinazolin-4-yl]-piperidine-1-carboxylic acid (4-pyrrolidin-1-yl-phenyl)-amide], the figure is 3 nM.
As for `CN1CCN(c2ccc3c(C4CCN(C(=O)Nc5ccc(N6CCCC6)cc5)CC4)ncnc3c2)CC1=O` [Compound 184, 4-[7-(4-Methyl-3-oxo-piperazin-1-yl)-quinazolin-4-yl]-piperidine-1-carboxylic acid (4-pyrrolidin-1-yl-phenyl)-amide], the figure is 244 nM; as for `O=C(Nc1ccc(N2CCCC2)cc1)N1CCC(c2ncnc3cc(N4CCN(CCO)CC4)ccc23)CC1` [Compound 185, 4-{7-[4-(2-Hydroxy-ethyl)-piperazin-1-yl]-quinazolin-4-yl}-piperidine-1-carboxylic acid (4-pyrrolidin-1-yl-phenyl)-amide], 55 nM.
The compound `COCCN1CCN(c2ccc3c(C4CCN(C(=O)Nc5ccc(N6CCCC6)cc5)CC4)ncnc3c2)CC1` [Compound 186, 4-{7-[4-(2-Methoxy-ethyl)-piperazin-1-yl]-quinazolin-4-yl}-piperidine-1-carboxylic acid (4-pyrrolidin-1-yl-phenyl)-amide] registered an IC50 of 93 nM.
As for `CCN1CCN(c2ccc3c(C4CCN(C(=O)Nc5ccc(N6CCCC6)cc5)CC4)ncnc3c2)CC1` [Compound 187, 4-[7-(4-Ethyl-piperazin-1-yl)-quinazolin-4-yl]-piperidine-1-carboxylic acid (4-pyrrolidin-1-yl-phenyl)-amide], the figure is 146 nM.
As for `O=C(Nc1ccc(N2CCCC2)cc1)N1CCC(c2ncnc3cc(OCC4CCOCC4)ccc23)CC1` [Compound 188, 4-[7-(Tetrahydro-pyran-4-ylmethoxy)-quinazolin-4-yl]-piperidine-1-carboxylic acid (4-pyrrolidin-1-yl-phenyl)-amide], the figure is 386 nM.
On to `O=C(Nc1ccc(N2CCCC2)cc1)N1CCC(c2ncnc3cc(OC4CCOCC4)ccc23)CC1` [Compound 189, 4-[7-(Tetrahydro-pyran-4-yloxy)-quinazolin-4-yl]-piperidine-1-carboxylic acid (4-pyrrolidin-1-yl-phenyl)-amide], for which 1130 nM corresponded to half-maximal inhibition (IC50).
As for `O=C(Nc1ccc(N2CCCC2)cc1)N1CCC(c2ncnc3cc(O[C@H]4CCOC4)ccc23)CC1` [Compound 190, (S)-4-[7-(Tetrahydro-furan-3-yloxy)-quinazolin-4-yl]-piperidine-1-carboxylic acid (4-pyrrolidin-1-yl-phenyl)-amide], the figure is 277 nM; as for `O=C(Nc1ccc(N2CCCC2)cc1)N1CCC(c2ncnc3cc(O[C@@H]4CCOC4)ccc23)CC1` [Compound 191, (R)-4-[7-(Tetrahydro-furan-3-yloxy)-quinazolin-4-yl]-piperidine-1-carboxylic acid (4-pyrrolidin-1-yl-phenyl)-amide], 216 nM; as for `O=C(Nc1ccc(N2CCCC2)cc1)N1CCC(c2ncnc3cc(N4CCN(c5ccccn5)CC4)ccc23)CC1` [Compound 192, 4-[7-(4-Pyridin-2-yl-piperazin-1-yl)-quinazolin-4-yl]-piperidine-1-carboxylic acid (4-pyrrolidin-1-yl-phenyl)-amide], 2 nM.
As for `O=C(Nc1ccc(N2CCCC2)cc1)N1CCC(c2ncnc3cc(N4CCN(c5ncccn5)CC4)ccc23)CC1` [Compound 193, 4-[7-(4-Pyrimidin-2-yl-piperazin-1-yl)-quinazolin-4-yl]-piperidine-1-carboxylic acid (4-pyrrolidin-1-yl-phenyl)-amide], the figure is 4 nM; as for `O=C(Nc1ccc(N2CCCC2)cc1)N1CCC(c2ncnc3cc(N4CCN(c5ccncc5)CC4)ccc23)CC1` [Compound 194, 4-[7-(4-Pyridin-4-yl-piperazin-1-yl)-quinazolin-4-yl]-piperidine-1-carboxylic acid (4-pyrrolidin-1-yl-phenyl)-amide], 20 nM; as for `O=C(Nc1ccc(N2CCCC2)cc1)N1CCC(c2ncnc3cc(N4CCC(F)CC4)ccc23)CC1` [Compound 195, 4-[7-(4-Fluoro-piperidin-1-yl)-quinazolin-4-yl]-piperidine-1-carboxylic acid (4-pyrrolidin-1-yl-phenyl)-amide], 163 nM.
As for `O=C(Nc1ccc(N2CCOCC2)cc1)N1CCC(c2ncnc3cc(N4CCC(F)CC4)ccc23)CC1` [Compound 196, 4-[7-(4-Fluoro-piperidin-1-yl)-quinazolin-4-yl]-piperidine-1-carboxylic acid (4-morpholin-4-yl-phenyl)-amide], the figure is 291 nM; as for `O=C(Nc1ccc(N2CCOCC2)cc1)N1CCC(c2ncnc3cc(N4CCNC4=O)ccc23)CC1` [Compound 197, 4-[7-(2-Oxo-imidazolidin-1-yl)-quinazolin-4-yl]-piperidine-1-carboxylic acid (4-morpholin-4-yl-phenyl)-amide], 1040 nM.
Take `CCNC(=O)N1CCN(c2ccc3c(C4CCN(C(=O)Nc5ccc(N6CCCC6)cc5)CC4)ncnc3c2)CC1` [Compound 199, 4-{4-[1-(4-Pyrrolidin-1-yl-phenylcarbamoyl)-piperidin-4-yl]-quinazolin-7-yl}-piperazine-1-carboxylic acid ethylamide]: 28 nM corresponded to half-maximal inhibition (IC50).
In the case of `O=C(CO)N1CCN(c2ccc3c(C4CCN(C(=O)Nc5ccc(N6CCCC6)cc5)CC4)ncnc3c2)CC1` [Compound 201, 4-{7-[4-(2-Hydroxy-acetyl)-piperazin-1-yl]-quinazolin-7-yl}-piperidine-1-carboxylic acid (4-pyrrolidin-1-yl-phenyl)-amide], the IC50 came to 17 nM.
As for `CN1CCN(CCOc2ccc3c(C4CCN(C(=O)Nc5ccc(N6CCCC6)cc5)CC4)ncnc3c2)CC1=O` [Compound 202, 4-{7-[2-(4-Methyl-3-oxo-piperazin-1-yl)-ethoxy]-quinazolin-4-yl}-piperidine-1-carboxylic acid (4-pyrrolidin-1-yl-phenyl)-amide], the figure is 90 nM; as for `CN1CCN(CCCOc2cc3ncnc(C4CCN(C(=O)Nc5ccc(N6CCOCC6)cc5)CC4)c3cc2F)CC1` [Compound 205, 4-{6-Fluoro-7-[3-(4-methyl-piperazin-1-yl)-propoxy]-quinazolin-4-yl}-piperidine-1-carboxylic acid (4-morpholin-4-yl-phenyl)-amide], 63 nM.
As for `COc1cc2ncnc(C3CCN(C(=O)Nc4ccc(OC(C)C)cc4)CC3)c2cc1OC` [Example 1, 4-(6,7-Dimethoxy-quinazolin-4-yl)-piperidine-1-carboxylic acid (4-isopropoxy-phenyl)-amide hydrochloride], the figure is 46 nM; as for `CC(C)Oc1ccc(NC(=O)N2CCC(c3ncnc4ccc(C#CCN5CCOCC5)cc34)CC2)cc1` [Example 15, 4-[6-(3-Morpholin-4-yl-prop-1-ynyl)-quinazolin-4-yl]-piperidine-1-carboxylic acid (4-isopropoxy-phenyl)-amide], 46 nM; as for `CC(C)c1ccc(NC(=O)CN2CCC(c3ncnc4ccccc34)CC2)cc1` [Example 16, N-(4-Isopropyl-phenyl)-2-(4-quinazolin-4-yl-piperidin-1-yl)-acetamide], 56 nM.
The compound `COc1cc2ncnc(C3CCN(C(=O)Nc4ccc(OC5CCC5)nc4)CC3)c2cc1OC` [Example 17, 4-(6,7-Dimethoxy-quinazolin-4-yl)-piperidine-1-carboxylic acid (6-cyclobutoxy-pyridin-3-yl)-amide] returned a half-inhibitory concentration (IC50) of 16 nM. This IC50 lies about 3.5-fold lower than the previous one.
As for `COc1cc2ncnc(C3CCN(C(=O)Nc4ccc(N5CCOCC5)cc4)CC3)c2cc1OC` [Example 18, 4-(6,7-Dimethoxy-quinazolin-4-yl)-piperidine-1-carboxylic acid (4-morpholin-4-yl-phenyl)-amide], the figure is 62 nM; as for `COc1cc2ncnc(C3CCN(C(=O)Nc4ccc(N5CCCCC5)cc4)CC3)c2cc1OC` [Example 19, 4-(6,7-Dimethoxy-quinazolin-4-yl)-piperidine-1-carboxylic acid (4-piperidin-1-yl-phenyl)-amide], 17 nM.

As usually defined, the IC50 is the concentration needed to halve the response being measured. Read a low IC50 as inhibition by little substance.
